Experimental data from patent US12076304B2, “Compositions comprising 15-HEPE and methods of treating or preventing hematologic disorders, and/or related diseases” (priority 2020, dated 2024).
Entries after “also recorded” stand apart in the source; their conditions may differ.

Legend:
Type in all cases: in vivo
[1] = tested on: UUO-induced renal interstitial fibrosis; assay: UUO mice: Sirius red staining of kidney sections, fibrosis area; conditions: for Sirius red-positive area / Sirius red-positive area (%) _Median: UUO mice kidney, Day 14, n = 8; for Sirius red-positive area: mean ± SD; for fibrosis area compared with the Vehicle group: UUO mice
Protocol: Histopathological analysis: To visualize collagen deposition, kidney sections were stained using picro-Sirius red solution (Waldeck, Germany). For quantification of interstitial fibrosis area, bright field images in the corticomedullary region were captured using a digital camera (e.g., DFC295; Leica Microsystems, Germany) at 200-fold magnification, and the positive areas in 5 fields/section were measured using ImageJ software (National Institute of Health, USA).

TIMP-1 mRNA = assay: UUO mice kidney quantitative RT-PCR, TIMP-1
Protocol: (§1) Quantitative RT-PCR: Total ribonucleic acid (RNA) was extracted from kidney samples using RNAiso (Takara Bio, Japan) according to the manufacturer's instructions. One μg of RNA was reverse-transcribed using a reaction mixture containing […] (mM) of magnesium chloride (MgCl2) (F. Hoffmann-La Roche, Switzerland), 40 U RNase inhibitor (Toyobo, Japan), 0.5 mM dNTP (Promega, USA), 6.28 μM random hexamer (Promega), 5× first strand buffer (Promega), 10 mM dithiothreitol (Invitrogen, USA) and 200 U MMLV-RT (Invitrogen) in a final volume of 20 μL. The reaction was carried out for 1 hour at 37° C., followed by 5 minutes at 99° C. Real-time PCR was performed using real-time PCR DICE and TB Green™ Premix Ex Taq™ II (Takara Bio). To calculate the relative […] (mRNA) expression level, the expression of each gene (e.g., α-SMA, TIMP-1, TGF-β and Collagen Type 1) was normalized to that of reference gene 36B4 (gene symbol: Rplp0). Information regarding the PCR-primer sets and the plate layout are described in Tables 1 and 2.

[2] = tested on: UUO-induced renal interstitial fibrosis; assay: UUO mice: kidney hydroxyproline content; conditions: for Kidney hydroxyproline: n = 8
Protocol: Measurement of Kidney Biochemistry: To quantify kidney hydroxyproline content, frozen left kidney samples were processed by an alkaline-acid hydrolysis method as follows: kidney samples were dissolved in 2 normal (N) sodium hydroxide (NaOH) at 65° C. and autoclaved at 121° C. for 20 minutes. The lysed samples (400 μL) were acid-hydrolyzed with 400 μL of 6N hydrochloride acid (HCl) at 121° C. for 20 minutes, and neutralized with 400 μL of 4N NaOH containing 10 mg/mL of activated carbon. An AC buffer (e.g., 2.2M acetic acid/0.48M citric acid, 400 μL) was added to the samples, followed by centrifugation to collect the supernatant. A standard curve of hydroxyproline was constructed with serial dilutions of trans-4-hydroxy-L-proline (Sigma-Aldrich, USA) starting at 16 μg/mL. The prepared samples and standards (e.g., each 400 μL) were mixed with 400 μL chloramine T solution (Wako Pure Chemical Industries, Japan) and incubated for 25 minutes at room temperature. The samples were then mixed with Ehrlich's solution (e.g., 400 μL) and heated at 65° C. for 20 minutes to develop the color. After samples were cooled on ice and centrifuged to remove precipitates, the optical density of each supernatant was measured at 560 nanometers (nm). The concentrations of hydroxyproline were calculated from the hydroxyproline standard curve. Protein concentrations of kidney samples were determined using a bicinchoninic (BCA) protein assay kit (Thermo Fisher Scientific, USA) and used to normalize the calculated hydroxyproline values. Kidney hydroxyproline contents were expressed as microgram (μg) per mg protein.
Sample Collection: For serum samples, non-fasting blood was collected in serum separate tubes without anticoagulant through direct cardiac puncture and centrifuged at 3,500×g for 4 minutes at 4° C. The supernatant was collected and stored at −80° C. for shipping. For kidney samples, the left kidney was collected and cut into 2 pieces horizontally. […] Paraffin blocks were stored at room temperature for histological analyses. […] The anterior part of left kidney was snap frozen in liquid nitrogen and stored at −80° C. for gene expression assay. The posterior part of left kidney was snap frozen in liquid nitrogen and stored at −80° C. for kidney biochemistry.

UUO mice = assay: UUO mice: body weight, kidney weight, general condition; conditions: n = 8
Protocol: UUO Surgery: On day 0 of the study, UUO surgery was performed on mice under pentobarbital sodium anesthesia. The mouse's hair was first shaved and then abdomen cut open to exteriorize the mouse's left ureter. The ureter was ligated 4-0 nylon sutures at two points. The mouse's peritoneum and skin were then closed with sutures, and the mouse transferred to a clean cage until recovered from the anesthesia. Sham operated mice had their left ureter exposed but not ligated. […]
Animals: Seven-week-old female C57BL/6 mice (i.e., animals) were obtained from Japan SLC, Inc. (Japan) and were housed and fed with a normal diet (CE-2; CLEA Japan, Japan) under controlled conditions. The animals were maintained in a specific-pathogen free (SPF) facility under controlled conditions of temperature (e.g., 23±2° C.), humidity (e.g., 45±10%), lighting (e.g., 12-hour artificial light and dark cycles; light from 8:00 to 20:00) and air exchange. A high pressure was maintained in the experimental room to prevent contamination of the facility. The animals were housed in TPX cages (CLEA Japan) with a maximum of 4 mice per cage. Sterilized Paper-Clean (Japan SLC) was used for bedding and replaced once a week. Sterilized solid normal diet was provided ad libitum, being placed in a metal lid on the top of the cage. Pure water was also provided ad libitum from a water bottle equipped with a rubber stopper and a sipper tube. Water bottles were replaced once a week, cleaned, and sterilized in an autoclave and reused. Mice were identified by ear punch and each cage was labeled with a specific identification code.
Animal Monitoring and Sacrifice: The viability, clinical signs and behavior for the mice were monitored daily. Individual body weight was measured daily before treatment during the treatment period. […] The animals were sacrificed by exsanguination through direct cardiac puncture under isoflurane anesthesia (Pfizer Inc.) at Day 14.

TGF-β mRNA = assay: UUO mice kidney quantitative RT-PCR, TGF-β
Protocol: as §1

Alpha-SMA mRNA = assay: UUO mice kidney quantitative RT-PCR, Alpha-SMA
Protocol: as §1

[3] = 50 mg/kg PO QD Day 0-13, Mann-Whitney U test, trend p<0.1, 50 mg/kg
[4] = 50 mg/kg PO QD Day 0-13, normalized to 36B4, Sham 1.00, mean ± SD
[5] = 500 mg/kg PO QD Day 0-13, normalized to 36B4, Sham 1.00, mean ± SD
[6] = 50 mg/kg PO QD Day 0-13, Day 14, mean ± SD
[7] = 500 mg/kg PO QD Day 0-13, Day 14, mean ± SD
[8] = 5 mg/kg PO QD Day 0-13, normalized to 36B4, Sham 1.00, mean ± SD
[9] = 250 mg/kg PO QD Day 0-13, normalized to 36B4, Sham 1.00, mean ± SD
[10] = 5 mg/kg PO QD Day 0-13, Day 14, mean ± SD
[11] = 250 mg/kg PO QD Day 0-13, Day 14, mean ± SD

Compound: 15-HEPE [DS102]
- Sirius red-positive area ([1]; 50 mg/kg PO QD Day 0-13): 5.01 ± 3.11%
- Sirius red-positive area (%) _Median ([1]; 50 mg/kg PO QD Day 0-13): 4.19 ± 3.33%
- Sirius red-positive area ([1]; 500 mg/kg PO QD Day 0-13): 4.01 ± 1.92%
- Sirius red-positive area (%) _Median ([1]; 500 mg/kg PO QD Day 0-13): 3.08 ± 1.16%
- fibrosis area compared with the Vehicle group [1, 3]: tended to decrease; also recorded: reduction trend
- fibrosis area compared with the Vehicle group ([1]; 500 mg/kg PO QD Day 0-13, Mann-Whitney U test, trend p<0.1, 500 mg/kg): tended to decrease; also recorded: reduction trend
- TIMP-1 relative mRNA expression level (TIMP-1 mRNA; [4]): 138.30 ± 30.39
- TIMP-1 relative mRNA expression level (TIMP-1 mRNA; [5]): 124.80 ± 28.60
- Kidney hydroxyproline [2, 6]: 8.47 ± 2.08 μg/mg total protein
- kidney hydroxyproline contents compared with the Vehicle group ([2]; 50 mg/kg PO QD Day 0-13, significance p<0.05, 50 mg/kg): significant decrease
- Kidney hydroxyproline [2, 7]: 8.59 ± 1.99 μg/mg total protein
- kidney hydroxyproline contents compared with the Vehicle group ([2]; 500 mg/kg PO QD Day 0-13, significance p<0.05): significant decreases
- Left Kidney Weight (UUO mice; [6]): 469 ± 60 mg
- Right Kidney Weight (UUO mice; [6]): 133 ± 10 mg
- Left Kidney Weight (UUO mice; [7]): 487 ± 108 mg
- Right Kidney Weight (UUO mice; [7]): 136 ± 6 mg
- TGF-β relative mRNA expression level (TGF-β mRNA; [4]): 4.31 ± 0.69
- TGF-β relative mRNA expression level (TGF-β mRNA; [5]): 5.37 ± 0.76
- Alpha-SMA relative mRNA expression level (Alpha-SMA mRNA; [4]): 3.74 ± 0.81
- Alpha-SMA relative mRNA expression level (Alpha-SMA mRNA; [5]): 5.54 ± 1.54

Compound: CCCCCC(O)/C=C/C=C\C/C=C\CCCCCCC(=O)O (stereo not drawn) [DS109, 15-HETrE]
- Sirius red-positive area ([1]; 5 mg/kg PO QD Day 0-13): 4.23 ± 1.90%
- Sirius red-positive area (%) _Median ([1]; 5 mg/kg PO QD Day 0-13): 3.22 ± 1.47%
- Sirius red-positive area ([1]; 50 mg/kg PO QD Day 0-13): 3.58 ± 1.04%
- Sirius red-positive area (%) _Median ([1]; 50 mg/kg PO QD Day 0-13): 3.28 ± 1.41%
- Sirius red-positive area ([1]; 250 mg/kg PO QD Day 0-13): 4.71 ± 0.96%
- Sirius red-positive area (%) _Median ([1]; 250 mg/kg PO QD Day 0-13): 3.76 ± 0.81%
- fibrosis area compared with the Vehicle group ([1]; 5 mg/kg PO QD Day 0-13, Mann-Whitney U test, trend p<0.1, 5 mg/kg): tended to decrease; also recorded: reduction trend
- fibrosis area compared with the Vehicle group ([1]; 50 mg/kg PO QD Day 0-13, Bonferroni Multiple Comparison): tended to decrease
- fibrosis area compared with the Vehicle group [1, 3]: tended to decrease; also recorded: reduction trend
- fibrosis area compared with the Vehicle group ([1]; 250 mg/kg PO QD Day 0-13, Mann-Whitney U test, trend p<0.1, 250 mg/kg): tended to decrease; also recorded: reduction trend
- TIMP-1 relative mRNA expression level (TIMP-1 mRNA; [8]): 153.60 ± 37.12
- TIMP-1 relative mRNA expression level (TIMP-1 mRNA; [4]): 167.70 ± 122.60
- TIMP-1 relative mRNA expression level (TIMP-1 mRNA; [9]): 180.90 ± 23.12
- Kidney hydroxyproline [2, 10]: 9.94 ± 2.02 μg/mg total protein
- kidney hydroxyproline contents compared with the Vehicle group ([2]; 5 mg/kg PO QD Day 0-13, significance p<0.05): significant decreases
- Kidney hydroxyproline [2, 6]: 13.94 ± 6.44 μg/mg total protein
- kidney hydroxyproline contents compared with the Vehicle group ([2]; 50 mg/kg PO QD Day 0-13, significance p<0.05): no significant difference
- Kidney hydroxyproline [2, 11]: 8.30 ± 1.04 μg/mg total protein
- kidney hydroxyproline contents compared with the Vehicle group ([2]; 250 mg/kg PO QD Day 0-13, significance p<0.05): significant decreases
- Body Weight (UUO mice; [10]): 19.1 ± 0.9 g
- Left Kidney Weight (UUO mice; [10]): 533 ± 138 mg
- Left Kidney-to-Body Weight Ratio (UUO mice; [10]): 2.79 ± 0.65%
- Right Kidney Weight (UUO mice; [10]): 137 ± 7 mg
- Right Kidney-to-Body Weight Ratio (UUO mice; [10]): 0.71 ± 0.04%
- Body Weight (UUO mice; [6]): 18.6 ± 0.6 g
- Left Kidney Weight (UUO mice; [6]): 523 ± 91 mg
- Left Kidney-to-Body Weight Ratio (UUO mice; [6]): 2.83 ± 0.50%
- Right Kidney Weight (UUO mice; [6]): 135 ± 6 mg
- Right Kidney-to-Body Weight Ratio (UUO mice; [6]): 0.73 ± 0.05%
- Body Weight (UUO mice; [11]): 18.6 ± 0.7 g
- Left Kidney Weight (UUO mice; [11]): 425 ± 105 mg
- Left Kidney-to-Body Weight Ratio (UUO mice; [11]): 2.26 ± 0.53%
- Right Kidney Weight (UUO mice; [11]): 130 ± 13 mg
- Right Kidney-to-Body Weight Ratio (UUO mice; [11]): 0.70 ± 0.05%
- TGF-β relative mRNA expression level (TGF-β mRNA; [8]): 4.29 ± 0.93
- TGF-β relative mRNA expression level (TGF-β mRNA; [4]): 6.01 ± 4.77
- TGF-β relative mRNA expression level (TGF-β mRNA; [9]): 5.48 ± 0.36
- Alpha-SMA relative mRNA expression level (Alpha-SMA mRNA; [8]): 3.87 ± 0.82
- Alpha-SMA relative mRNA expression level (Alpha-SMA mRNA; [4]): 4.61 ± 3.15
- Alpha-SMA relative mRNA expression level (Alpha-SMA mRNA; [9]): 4.85 ± 1.22
